Test results taken from patent publication EP2698367A1, “Benzimidazoles for the treatment of cancer” (Max-Planck-Gesellschaft zur Förderung der Wissenschaften …, priority 2012, dated 2014).
pKd: −log10 of the molar value. Like-named read-outs stand apart in the source and are kept apart here.

How the values were obtained:
[1] = biological target: PDEδ farnesyl pocket (Homo sapiens, UniProt O43924); test: Displacement titrations of labeled probe (fluorescence polarization) for the determination of KD values; assay type: binding
Description: The resulting solution was serially diluted, holding the concentrations of S54, PDEδ and DMSO constant. The sealed plates were shaken overnight at room temperature and centrifuged at the beginning of the next day. […] For the fitting of the data to a competition model the exact mathematical solution derived from the law of mass action was used as described by Roehrl et al.^3 Fraction bound data was fit using KD2 as the only fitting parameter and total ligand concentration as independent variable (OriginPro8.6, function codec from origin). [formula] • FSB: Fraction bound of fluorescent probe • KD1: Binding constant of fluorescent Probe determined from direct titration • KD2: Fitting parameter (Binding constant of unlabeld competitor) • LST: Total concentration of unlabeld small molecule competitor • RT: Total protein concentration
For the fitting of data to a competition model with cooperative binding of two benzimidazole fragments the program Scientist 3.0 was used. An experimental system was defined as a series of partial equations including the equilibrium relationships between the various species. Anisotropy data was converted to fraction bound and fitting was carried out in anlogy to a previously described set of equilibrium relationships by Goody and coworkers.^4. KD1 = ([A][PDEDf])/([APDED]) [formula] KD2 = ([L^2][PDEDf])/([LPDED]) [formula] • A:equilibrium conentration of free fluorophore • L: equilibrium concentration of free ligand • APDED: equilibrium concentration of bound fluorescent probe • LPDED: equilibrium conentration of bound small molecule • PDEDf: equilibrium conentration of free protein This model was used (together with equations describing the mass balance) to numerically simulate the FSB of fluorophore and compared with the experimental data.
Scientist input file: • // Micromath Scientist Model File • IndVars: LST • DepVars: A,L,APDED,LPDED,PDEDf,FSB • Params: ATOT,PDED,KD1,KD2 • LPDED= L^2*PDEDf/KD2 • APDED=A*PDEDf/KD1 • ATOT=A+APDED • LST=L+LPDED • PDED=PDEDf+APDED+LPDED • 0<A<ATOT • 0<L<LST • 0<PDEDf<PDED • FSB=1-A/ATOT • LST=0
The activity of the compounds was classified according to their Kd for the PDEδ farnesyl pocket into the following ranges: […]

[2] = biological target: interaction of Rheb with PDEδ (Homo sapiens, UniProt O43924); conditions: 5 µM, live MDCK cells, measured by FLIM
Protocol: To address whether the novel compounds that target the farnesyl binding pocket in PDEδ inhibit the interaction between PDEδ and Ras family proteins in live cells, fluorescence lifetime imaging microscopy (FLIM)-based quantitative fluorescence resonance energy transfer (FRET) measurements were carried out. These experiments allow the quantitative determination of the fraction (α) of interacting mCitrine (a yellow fluorescent protein) tagged Ras proteins with mCherry (a red fluorescent protein) tagged PDEδ in living cells by the change in the fluorescence lifetime (τav) of the mCitrine fused to Ras. mCitrine-Rheb was selected as the farnesylated Ras family protein due to its more clearly measurable interaction with mCherry-PDEδ in live cells.
All cells were routinely maintained in MEM Eagle's medium supplemented with 10% FBS, 1% non-essential amino acids and 1% L-glutamine. […]
Fluorescence lifetime images were acquired using a confocal laser scanning microscope (FV1000, Olympus) equipped with a time-correlated single-photon counting module (LSM Upgrade Kit, Picoquant). […] Photons were detected using a single-photon counting avalanche photodiode (PDM Series, MPD) and timed using a single-photon counting module (PicoHarp 300, Picoquant).

[3] = tested on: Erk; test: Western blot of ERK signaling (Erk phosphorylation) in PANC-TUI cells; assay type: cell-based, human; conditions: 5 µM, EGF, measured by phosphorylation
[4] = tested on: CAPAN-1 cells; test: Real time cell analysis (RTCA) of CAPAN-1 cells; assay type: cell-based; conditions: 5µM, K-Ras dependent pancreatic tumor cell
[5] = tested on: mCherry-K-Ras in PancTul cells; test: Time series of mCherry-K-Ras redistribution in PancTul cells; assay type: cell-based, human; conditions: 5µM
[6] = tested on: PANC-TUI cells; test: Real time cell analysis (RTCA) of PANC-TUI cell proliferation; assay type: cell-based, human; conditions: 5µM, K-Ras dependent pancreatic tumor cell
Protocol: To address whether the novel compounds that target the farnesyl binding pocket in PDEδ inhibit the interaction between PDEδ and Ras family proteins in live cells, fluorescence lifetime imaging microscopy (FLIM)-based quantitative fluorescence resonance energy transfer (FRET) measurements were carried out. […] Figure 4: Real time cell analysis (RTCA) of PANC-TUI cell proliferation. PANC-TUI is a K-Ras dependent pancreatic tumor cell.

[7] = tested on: mCherry-K-Ras in Panc1 cells; test: Time series of mCherry-K-Ras redistribution in Panc1 cells; assay type: cell-based, human; conditions: 5µM
[8] = Kd for the PDEδ farnesyl pocket, read-out: KD

Chain of PDEδ farnesyl pocket (O43924 whole entry): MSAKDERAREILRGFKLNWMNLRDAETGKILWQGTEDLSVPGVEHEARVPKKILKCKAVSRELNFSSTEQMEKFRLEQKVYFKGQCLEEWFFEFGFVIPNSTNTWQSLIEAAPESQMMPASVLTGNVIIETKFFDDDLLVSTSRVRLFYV
Chain of interaction of Rheb with PDEδ (O43924 whole entry): as above

Row | Structure (SMILES) | pKd [1, 8] | also measured
1 | COc1cc(OC)cc(C(=O)N2CCN(c3nc4ccccc4n3Cc3ccccc3)CC2)c1 [Compound 45] | 6.00 to 7.00 | –
2 | c1ccc(Cn2c(-c3ccc(OC[C@H](C4CCNCC4)n4c(-c5ccccc5)nc5ccccc54)cc3)nc3ccccc32)cc1 [(S)-9, (S)-1-Benzyl-2-(4-(2-(2-phenyl-1H-benzo[d]imidazol-1-yl)-2-(piperidin-4-yl)ethoxy)phenyl)-1H-benzo[d]imidazole] | – | interaction between mCitrine-Rheb and mCherry-PDEδ [2]: more rapidly (within one minute) and more strongly reduced; activation of Erk [3]: attenuated activation of Erk; Proliferation of CAPAN-1 cells [4]: inhibited strongly; mCherry-K-Ras redistribution [5]: loss of K-Ras spatial organization; PANC-TUI cell proliferation [6]: stopped proliferating and underwent cell death within a few hours; mCherry-K-Ras redistribution [7]: loss of K-Ras spatial organization
3 | CC(C)Cc1nc2ccccc2n1Cc1c(F)cccc1Cl [Compound 37] | 7.00 to 7.60 | –
4 | O=C(NCCCN1CCN(c2ccc(O)cc2)CC1)C1CCN(c2nc3ccccc3n2Cc2cccc(F)c2)CC1 [Compound 18] | – | pKd ([1]; read-out: KD): 6.00 to 7.00
5 | Cc1cccc(-c2nc3ccccc3n2CCc2ccccc2)c1 [Compound 36] | < 6.00 | –
6 | c1ccc(Cn2c(-c3ccc(OCCn4c(-c5ccccc5)nc5ccccc54)cc3)nc3ccccc32)cc1 [Compound 06, 1-Benzyl-2-(4-(2-(2-phenyl-1H-benzo[d]imidazol-1-yl)ethoxy)phenyl)-1H-benzo[d]imidazole] | 6.00 to 7.00 | –
7 | O=C(NCCO)C(c1ccccc1)n1c(-c2ccccc2)nc2ccccc21 (stereo not drawn) [Compound 51] | < 6.00 | –
8 | C=C(C)Cn1c(CC(C)C)nc2ccccc21 [Compound 31] | 6.00 to 7.00 | –
9 | O=C(c1ccccc1Cl)N1CCN(c2nc3ccccc3n2Cc2ccccc2)CC1 [Compound 46] | 6.00 to 7.00 | –
10 | CC(C)Cc1nc2ccccc2n1Cc1ccccc1 [Compound 32] | 6.00 to 7.00 | –
11 | Oc1ccc(-c2nc3ccccc3n2Cc2ccccn2)cc1 [Compound S08, 4-(1-(Pyridin-2-ylmethyl)-1H-benzo[d]imidazol-2-yl)phenol] | < 6.00 | –
12 | C=CCOc1ccc(-c2nc3ccccc3n2Cc2ccccn2)cc1 [Compound S03, 2-(4-(Allyloxy)phenyl)-1-(pyridin-2-ylmethyl)-1H-benzo[d]imidazole] | < 6.00 | –
13 | Fc1ccc(Cn2c(-c3cccc(Br)c3)nc3ccccc32)cc1 [Compound 43] | < 6.00 | –
14 | Cc1ccccc1Cn1c(CC(C)(C)C)nc2ccccc21 [Compound 34] | 7.00 to 7.60 | –
15 | Cc1ccc(NC(=O)N2CCN(c3nc4ccccc4n3Cc3ccccc3)CC2)c(C)c1 [Compound 44] | 6.00 to 7.00 | –
16 | COc1ccccc1OCc1nc2ccccc2n1Cc1ccccc1Cl [Compound 13] | 6.00 to 7.00 | –
17 | Oc1ccc(-c2nc3ccccc3n2Cc2ccccc2)cc1 [Compound S07, 4-(1-Benzyl-1H-benzo[d]imidazol-2-yl)phenol] | 7.00 to 7.60 | –
18 | COc1cccc(CNC(=O)C2CCN(c3nc4ccccc4n3Cc3ccccc3C)CC2)c1 [Compound 19] | 6.00 to 7.00 | –
19 | c1ccc(CCn2c(-c3ccco3)nc3ccccc32)cc1 [Compound 26] | 6.00 to 7.00 | –
20 | Ic1ccc(Cn2c(-c3ccc(I)o3)nc3ccccc32)o1 [Compound 48] | 7.00 to 7.60 | –
21 | C=CCOc1ccc(-c2nc3ccccc3n2Cc2ccccc2C)cc1 [Compound S04, 2-(4-(Allyloxy)phenyl)-1-(2-methylbenzyl)-1H-benzo[d]imidazole] | < 6.00 | –
22 | Cc1ccccc1Cn1c(Cc2ccccc2)nc2ccccc21 [Compound 28] | < 6.00 | –
23 | Cc1ccccc1Cn1c(N2CCC(C(=O)NCCCN3CC(C)CC(C)C3)CC2)nc2ccccc21 (stereo not drawn) [Compound 25] | 6.00 to 7.00 | –
24 | C=CCOc1ccc(-c2nc3ccccc3n2Cc2ccccc2)cc1 [Compound S02, 2-(4-(Allyloxy)phenyl)-1-benzyl-1H-benzo[d]imidazole] | < 6.00 | –
25 | O=C(NCCN1CCCC1)C1CCN(c2nc3ccccc3n2Cc2ccccc2F)CC1 [Compound 17] | 6.00 to 7.00 | –
26 | Cc1ccc(C)c(Cn2c(CCNC(=O)CCCC(C)O)nc3ccccc32)c1 (stereo not drawn) [Compound 47] | < 6.00 | –

Row | Structure (SMILES) | pKd [1, 8] | also measured
27 | CN(CCCNC(=O)C1CCN(c2nc3ccccc3n2Cc2ccc(F)cc2)CC1)C1CCCCC1 [Compound 21] | 6.00 to 7.00 | –
28 | O=C(NCc1ccccc1)C(C1CCCCC1)n1c(-c2ccccc2)nc2ccccc21 (stereo not drawn) [Compound S12, N-Benzyl-2-cyclohexyl-2-(2-phenyl-1H-benzo[d]imidazol-1-yl)acetamide] | 6.00 to 7.00 | –
29 | c1ccc(C2Nc3ccccc3-c3nc4ccccc4n32)nc1 (stereo not drawn) [Compound 02, 6-Pyiridyl-5,6-dihydrobenzo[4-5]imidazo[1,2-c]quinazoline] | < 6.00 | –
30 | CCC(CC)c1nc2ccccc2n1Cc1ccccc1 [Compound 30] | < 6.00 | –
31 | COc1ccc(Cc2nc3ccccc3n2Cc2ccccc2)cc1 [Compound 27] | – | pKd [1]: 6.00 to 7.00
32 | C=CCOc1ccc(-c2nc3ccccc3n2Cc2ccc(F)cc2)cc1 [Compound S06, 2-(4-(Allyloxy)phenyl)-1-(4-fluorobenzyl)-1H-benzo[d]imidazole] | 6.00 to 7.00 | –
33 | Cc1ccc(-c2nc3ccccc3n2Cc2ccc(F)cc2)o1 [Compound 42] | 6.00 to 7.00 | –
34 | Cc1ccc(OCc2nc3ccccc3n2C(C)c2ccccc2)cc1 (stereo not drawn) [Compound 16] | 6.00 to 7.00 | –
35 | C=C(C)Cn1c(-c2ccc(N(C)C)cc2)nc2ccccc21 [Compound 14] | 6.00 to 7.00 | –
36 | CCCC(O)c1nc2ccccc2n1Cc1c(F)cccc1Cl (stereo not drawn) [Compound 41] | 6.00 to 7.00 | –
37 | Cc1ccccc1Cn1c(N2CCC(C(=O)O)CC2)nc2ccccc21 [Compound 22] | < 6.00 | –
38 | CC(C)(C)OC(=O)N1CCC(C(COc2ccc(-c3nc4ccccc4n3Cc3ccccc3)cc2)n2c(-c3ccccc3)nc3ccccc32)CC1 (stereo not drawn) [Compound 08, tert-Butyl-4-(2-(4-(1-benzyl-1H-benzo[d]imidazol-2-yl)phenoxy)-1-(2-phenyl-1H-benzo[d]imidazol-1-yl)ethyl)piperidine-1-carboxylate] | < 6.00 | –
39 | C#CCn1c(-c2ccccc2Br)nc2ccccc21 [Compound 38] | < 6.00 | –
40 | CCCCc1nc2ccccc2n1Cc1ccc(Cl)cc1 [Compound 29] | 6.00 to 7.00 | –
41 | Oc1ccc(Cn2c(-c3ccc(O)cc3)nc3ccccc32)cc1 [Compound 15] | – | pKd [1]: 7.00 to 7.60
42 | COc1cccc(C(=O)C=Cc2nc3ccccc3n2Cc2ccccc2)c1 [Compound 49] | < 6.00 | –
43 | COc1ccc(-c2nc3ccccc3n2Cc2c(F)cccc2Cl)cc1 [Compound 50] | 6.00 to 7.00 | –
44 | Oc1ccc(-c2nc3ccccc3n2Cc2ccc(F)cc2)cc1 [Compound S09, 4-(1-(4-Fluorobenzyl)-1H-benzo[d]imidazol-2-yl)phenol] | 6.00 to 7.00 | –
45 | c1ccc(Cn2c(CN3CCCCCC3)nc3ccccc32)cc1 [Compound 40] | – | pKd [1]: 6.00 to 7.00
46 | CCc1nc2ccccc2n1Cc1ccccc1F [Compound 33] | 6.00 to 7.00 | –
47 | CC1CCCN(C(=O)C2CCN(c3nc4ccccc4n3Cc3cccc(F)c3)CC2)C1 (stereo not drawn) [Compound 23] | < 6.00 | –
48 | CCOc1ccc(CNC(=O)C2CCN(c3nc4ccccc4n3Cc3ccc(F)cc3)CC2)cc1 [Compound 20] | 7.00 to 7.60 | –
49 | OCC(C1CCCCC1)n1c(-c2ccccc2)nc2ccccc21 (stereo not drawn) [Compound S16, 2-Cyclohexyl-2-(2-phenyl-1H-benzo[d]imidazol-1-yl)ethanol] | < 6.00 | –
50 | Clc1cccc(Cn2c(-c3ccco3)nc3ccccc32)c1 [Compound 39] | 6.00 to 7.00 | –
51 | CC(C)CCn1c(CC(C)(C)C)nc2ccccc21 [Compound 35] | – | pKd [1]: 6.00 to 7.00
52 | CCN(CCCNC(=O)C1CCN(c2nc3ccccc3n2Cc2ccc(C)cc2)CC1)c1cccc(C)c1 [Compound 24] | < 6.00 | –
